# Source: US20070088023A1, “Method of administration for 5-(2-chlorophenyl)-1,2-dihydro-7-fluoro-8-methoxy-3-methyl-oyrazolo[1,4]benzodiazepine” (priority 2005, published 2007)
# Read-outs that look alike come from different tables or passages of the source.
# Experiment: pre-clinical good laboratory practices toxicology, maximum tolerated dose
# Design: species or system rats
# Details: rat, in vivo
# Experimental: The starting dose is based on pre-clinical good laboratory practices toxicological results, according to the accepted standards. […] Thus, the maximum tolerated dose equivalent for this trial will be 1/10th of the HED or 1.8 rounded down to 1.5 mg/m^2/day with dose escalation in 1.5 mg/m^2 increments to 30 mg/m^2 or until dose limiting toxicity(s)(DLT) occur.
smiles,measurement,setting,value
"COc1cc2c(cc1F)C(c1ccccc1Cl)=Nc1c(n[nH]c1C)N2 [compound of Formula I, 5-(2-chlorophenyl)-1,2-dihydro-7-fluoro-8-methoxy-3-methyl-pyrazolo[3,4-b][1,4]benzodiazepine]",MTD,"rat MTD 3 mg/kg/day times 6, read-out: HED (human equivalent dose) of the rat maximum tolerated dose",18 mg/kg/day
same,MTD,"rats, pre-clinical GLP toxicology, read-out: maximum tolerated dose in rats",3 mg/kg/day
